One data set is described as follows: clinical. Conditions: both, human, in vivo.
Data set [1] relates to patients with uncontrolled type 2 diabetes mellitus. The data set is described as follows: Random double blind clinical study in patients with uncontrolled type 2 diabetes mellitus, 90 days. The format is in vivo, human. Conditions: uncontrolled type 2 diabetes patients, final evaluation 90 days, dose by basal glycemia. The text has this:
Criteria for inclusion were as follows: • 1. […] Age 40 to 65; • 3. Capacity for deglutition; and • 4 Voluntary consent Criteria for exclusion were as follows: • 1. Pregnancy; • 2. Insulin treatment; and • 3. Personal background of systemic diseases such as: • a) Cardiac insufficiency; and • b) Hepatic or chronic hepatopathic insufficiency. • 4 Background of significant chronic complications with type 2 diabetes mellitus: • a) Renal insufficiency; • b) Ischemic cardiopathy; • c) Cerebral vascular disease; and • d) Visceral neuropathy. • 5. Background of short-term terminal diseases, such as: • a) Cancer; and • b) HIV • 6. […] Known intolerance or allergies to sulfonylureas or biguanides. Criteria for exclusion from the therapy, but not from the statistical analysis: • 1. Presence of severe hypoglycemia at the maximum dosages used in the study; • 2. Presence of severe hypoglycemia at the minimum dosages used in the study; • 3. Presence of intolerable undesirable effects with any of the medications used in the study; • 4. Failure to follow the medical treatment indicated; • 5. Failure to attend scheduled visits; • 6. Intercurrent illnesses or accidents that warrant hospitalization; • 7. […] Voluntary withdrawal from the study. The variables studied were as follows: • Dependent variables: • a) Glycemia between meals; • b) Glucosylated hemoglobin; • c) β cell function; • d) Insulin resistance; and • e) Metabolic profile. • Independent variable: • a) Hypoglycemic therapy. • Intervening variables: • a) Age; • b) Sex; • c) Body mass index; and • d) Evolution of diabetes. Clinical measurements and basal measurement of glycemia between meals, glucosylated hemoglobin, total cholesterol, cholesterol of high density lipoproteins, triglycerides, creatinine, uric acid, glutemic-oxaloacetic transaminase, glutemic-pyruvic transaminase, lactic dehydrogenase, alkaline and insulin phosphatase. Random assignment of patients to each group and pharmacological intervention in accordance with concentration of basal glycemia: [table] Clinical evaluation 30 and 60 days after beginning the study, measuring glycemia between meals and lactic dehydroginase. Final clinical evaluations 90 days after the study begins, measuring glycemia between meals, glucosylated hemoglobin, total cholesterol, high density lipoprotein cholesterol, triglyceride, creatinine, uric acid, glutemic-oxaloacetic transaminase, glutemic-pyruvic transaminase, lactic dehydrogenase, alkaline and insulin phosphatase. Undesirable effects were reported on a special record sheet, specifying each of the clinical manifestations considered probable, possible or directly related to the use of the drugs ingested.

A further data set has as its system type 2 diabetic patients. Conditions: cited from earlier work.

What is called half-life is the time needed for the level to fall by half in the phase considered. Low readings indicate rapid decline, high ones slow decline.

On to `CCC1=C(C)CN(C(=O)NCCc2ccc(S(=O)(=O)NC(=O)N[C@H]3CC[C@H](C)CC3)cc2)C1=O` [glimepiride], for which the half-life in “clinical” is 3.73 h. For the same compound, in data set [1], the “Blood glucose between meals (change)” value was “+0.68”, the “Glucosylated hemoglobin HbA1c (change)” value is on record as “+0.25” and the “Post-prandial blood glucose (change)” value is on record as “+0.99”. The “potency relative to glibenclamide” value in the data set with type 2 diabetic patients (R. Groomis et al., Endocrinology 13:117-121 (2000)) is recorded as “two times higher”. In the data set on type 2 diabetic patients (type 2 diabetic patients, A. Holstein et al. (2000)), the “incidence of severe hypoglycemia versus glibenclamide” value is recorded as “lower incidence”.

Turning to `CN(C)C(=N)N=C(N)N` [metformin], in data set [1], the “Blood glucose between meals (change)” value is “+0.75”, the “Glucosylated hemoglobin HbA1c (change)” value is “+0.06” and the “Post-prandial blood glucose (change)” value is on record as “+1.08”.

(Values after patent US9045438B2 (Silanes S.A. de C.V., priority 2002, dated 2015).)
